# Laboratory results published in patent US8802597B2, “Herbicidal pyrimidines” (E I du Pont de Nemours and Company, priority 2003, dated 2014).
# Assays:
# Assay in all cases: Test G pre/postemergence
# Assay type in all cases: in vivo
# Conditions in all cases: Preemergence
# [1] = tested on: Italian ryegrass (Lolium multiflorum)
# How it was run: (§1)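 Seeds or nutlets were planted and treated preemergence with compound formulated in a non-phytotoxic solvent mixture containing surfactant; plants 2 to 18 cm tall (1- to 4-leaf stage) received postemergence sprays of the same formulation. After 12 to 21 days in a greenhouse, injury was rated visually against untreated controls on a 0–100 scale (100 = complete control).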
# [2] = tested on: goosegrass (Eleusine indica)
# How it was run: as §1
# [3] = tested on: common mallow (Malva sylvestris)
# How it was run: as §1
# [4] = tested on: annual bluegrass (Poa annua)
# How it was run: as §1
# [5] = tested on: field bindweed (Convolvulus arvensis)
# How it was run: as §1
# [6] = tested on: dallisgrass (Paspalum dilatatum)
# How it was run: as §1
# [7] = tested on: johnsongrass (Sorghum halepense)
# How it was run: as §1
# [8] = tested on: broadleaf signalgrass (Brachiaria platyphylla)
# How it was run: as §1
# [9] = tested on: bermudagrass (Cynodon dactylon)
# How it was run: as §1
# [10] = tested on: pitted morningglory (Ipomoea lacunosa)
# How it was run: as §1
# [11] = tested on: Surinam grass (Brachiaria decumbens)
# How it was run: as §1
# [12] = tested on: black mustard (Brassica nigra)
# How it was run: as §1
# [13] = tested on: green foxtail (Setaria viridis)
# How it was run: as §1
# [14] = tested on: tropical spiderwort (Commelina benghalensis)
# How it was run: as §1
smiles,measurement,setting,value
"COC(=O)c1nc(C2CC2)nc(N)c1Cl [Compound 9, methyl 6-amino-5-chloro-2-cyclopropyl-4-pyrimidinecarboxylate]","Plant response rating, Ryegrass, Italian","[1]; 62 g ai/ha, scale 0-100",20
same,"Plant response rating, Ryegrass, Italian","[1]; 125 g ai/ha, scale 0-100",50
same,"Plant response rating, Ryegrass, Italian","[1]; 250 g ai/ha, scale 0-100",75
same,"Plant response rating, Ryegrass, Italian","[1]; 500 g ai/ha, scale 0 to 100",80
same,"Plant response rating, Goosegrass","[2]; 62 g ai/ha, scale 0-100",10
same,"Plant response rating, Goosegrass","[2]; 125 g ai/ha, scale 0-100",60
same,"Plant response rating, Goosegrass","[2]; 250 g ai/ha, scale 0-100",95
same,"Plant response rating, Goosegrass","[2]; 500 g ai/ha, scale 0 to 100",95
same,"Plant response rating, Mallow","[3]; 62 g ai/ha, scale 0-100",90
same,"Plant response rating, Mallow","[3]; 125 g ai/ha, scale 0-100",100
same,"Plant response rating, Mallow","[3]; 250 g ai/ha, scale 0-100",100
same,"Plant response rating, Mallow","[3]; 500 g ai/ha, scale 0 to 100",100
same,"Plant response rating, Bluegrass","[4]; 62 g ai/ha, scale 0-100",10
same,"Plant response rating, Bluegrass","[4]; 125 g ai/ha, scale 0-100",30
same,"Plant response rating, Bluegrass","[4]; 250 g ai/ha, scale 0-100",95
same,"Plant response rating, Bluegrass","[4]; 500 g ai/ha, scale 0 to 100",100
same,"Plant response rating, Bindweed, Field","[5]; 62 g ai/ha, scale 0-100",95
same,"Plant response rating, Bindweed, Field","[5]; 125 g ai/ha, scale 0-100",100
same,"Plant response rating, Bindweed, Field","[5]; 250 g ai/ha, scale 0-100",100
same,"Plant response rating, Bindweed, Field","[5]; 500 g ai/ha, scale 0 to 100",100
same,"Plant response rating, Dallisgrass","[6]; 62 g ai/ha, scale 0-100",10
same,"Plant response rating, Dallisgrass","[6]; 125 g ai/ha, scale 0-100",70
same,"Plant response rating, Dallisgrass","[6]; 250 g ai/ha, scale 0-100",80
same,"Plant response rating, Dallisgrass","[6]; 500 g ai/ha, scale 0 to 100",100
same,"Plant response rating, Johnsongrass","[7]; 62 g ai/ha, scale 0-100",40
same,"Plant response rating, Johnsongrass","[7]; 125 g ai/ha, scale 0-100",80
same,"Plant response rating, Johnsongrass","[7]; 250 g ai/ha, scale 0-100",95
same,"Plant response rating, Johnsongrass","[7]; 500 g ai/ha, scale 0 to 100",95
same,"Plant response rating, Signalgrass","[8]; 62 g ai/ha, scale 0-100",20
same,"Plant response rating, Signalgrass","[8]; 125 g ai/ha, scale 0-100",80
same,"Plant response rating, Signalgrass","[8]; 250 g ai/ha, scale 0-100",80
same,"Plant response rating, Signalgrass","[8]; 500 g ai/ha, scale 0 to 100",100
same,"Plant response rating, Bermudagrass","[9]; 62 g ai/ha, scale 0-100",10
same,"Plant response rating, Bermudagrass","[9]; 125 g ai/ha, scale 0-100",95
same,"Plant response rating, Bermudagrass","[9]; 250 g ai/ha, scale 0-100",95
same,"Plant response rating, Bermudagrass","[9]; 500 g ai/ha, scale 0 to 100",100
same,"Plant response rating, Morningglory","[10]; 62 g ai/ha, scale 0-100",70
same,"Plant response rating, Morningglory","[10]; 125 g ai/ha, scale 0-100",100
same,"Plant response rating, Morningglory","[10]; 250 g ai/ha, scale 0-100",100
same,"Plant response rating, Morningglory","[10]; 500 g ai/ha, scale 0 to 100",100
same,"Plant response rating, Surinam Grass","[11]; 62 g ai/ha, scale 0-100",40
same,"Plant response rating, Surinam Grass","[11]; 125 g ai/ha, scale 0-100",70
same,"Plant response rating, Surinam Grass","[11]; 250 g ai/ha, scale 0-100",80
same,"Plant response rating, Surinam Grass","[11]; 500 g ai/ha, scale 0 to 100",90
same,"Plant response rating, Black Mustard","[12]; 62 g ai/ha, scale 0-100",70
same,"Plant response rating, Black Mustard","[12]; 125 g ai/ha, scale 0-100",75
same,"Plant response rating, Black Mustard","[12]; 250 g ai/ha, scale 0-100",100
same,"Plant response rating, Black Mustard","[12]; 500 g ai/ha, scale 0 to 100",100
same,"Plant response rating, Foxtail, Green","[13]; 62 g ai/ha, scale 0-100",20
same,"Plant response rating, Foxtail, Green","[13]; 125 g ai/ha, scale 0-100",85
same,"Plant response rating, Foxtail, Green","[13]; 250 g ai/ha, scale 0-100",100
same,"Plant response rating, Foxtail, Green","[13]; 500 g ai/ha, scale 0 to 100",100
same,"Plant response rating, Spiderwort","[14]; 62 g ai/ha, scale 0-100",100
same,"Plant response rating, Spiderwort","[14]; 125 g ai/ha, scale 0-100",100
same,"Plant response rating, Spiderwort","[14]; 250 g ai/ha, scale 0-100",100
same,"Plant response rating, Spiderwort","[14]; 500 g ai/ha, scale 0 to 100",100
